Our source for the IC90, CC50 and IC50 values is ChEMBL document CHEMBL1126382, “Synthesis and anti-HIV activity of pyrrolo-[1,2-d]-(1,4)-benzodiazepin-6-ones” (Bioorg Med Chem Lett, 1992).

For test [1], the system named is MT2. Nature of the test: Inhibition concentration required to protect 90% of cells(MT-2) from HIV induced death was determined. Particulars: Homo sapiens. In kind it is functional.
For test [2], the system named is MT2. Nature of the test: Inhibition concentration required to protect 50% of cells(MT-2) from HIV induced death was determined. Type of test: functional. The conditions noted are these: Homo sapiens, read-out: TC50 (the source's name).
Test [3] has as its system MT2. Nature of the test: Inhibition concentration required to protect 90% of cells(MT-2) from HIV-1(rf) induced death was determined. Type of test: functional. Particulars: Homo sapiens.
The test system of test [4] is MT2. The test is described as follows: Inhibition concentration required to protect 50% of cells(MT-2) from HIV-1(rod) induced death was determined. In kind it is functional, cell-based. The conditions noted are these: Homo sapiens.
Test [5] has as its system MT2. The test is described as follows: Inhibition concentration required to protect 90% of cells(MT-2) from HIV-1(3b) induced death was determined. In kind it is functional. Particulars: Homo sapiens.
For test [6], the system named is MT2. Nature of the test: Inhibition concentration required to protect 50% of cells(MT-2) from HIV-1(3b) induced death was determined. In kind it is functional. Particulars: Homo sapiens, read-out: TC50 (the source's name).
For test [7], the system named is Human immunodeficiency virus 1. The test is described as follows: (§1) Inhibitory concentration against HIV-1 was determined. Type of test: functional.
For test [8], the system named is Human immunodeficiency virus 1. Described as §1. In kind it is functional, organism-based.

pIC50: −log10 of the molar value. In brackets after ≈: the same amount, converted by molar mass. Bounds are passed on as bounds.

As for `O=C1Nc2ccccc2-c2cccn2[C@H]1Cc1ccccc1`, the IC90 with MT2 [1] is > 21 µg/mL. In the test on MT2 [2], the CC50 came out at 21 µg/mL (≈ 72.8 µM).
As to `O=C1Cn2cccc2-c2ccccc2N1`, in the test on MT2 [1], the IC90 is > 50 µg/mL. Besides, in the test with MT2 [2], the CC50 is > 50 µg/mL.
For `O=C(C[C@H]1C(=O)Nc2ccccc2-c2cccn21)OCc1ccccc1`, the 90% effect concentration (IC90) in the test with MT2 [1] is 0.29 µg/mL (≈ 0.837 µM); with MT2 [3], 0.29 µg/mL (≈ 0.837 µM); in the test with MT2 [5], > 0.3 µg/mL; in test [7] it was 800 nM. The compound also gave an IC50 with MT2 [4] of 3 µg/mL (≈ 8.66 µM). Further, the CC50 with MT2 [6] was > 10 µg/mL; with MT2 [2], 10 µg/mL (≈ 28.9 µM).
`O=C1c2ccccc2C(=O)N1CCCCCN1C(=O)[C@H](Cc2ccc(O)cc2)n2cccc2-c2ccccc21` registered a 90% effect concentration (IC90) with MT2 [1] of 2.6 µg/mL (≈ 5 µM). In addition, in the test with MT2 [2], the CC50 is > 50 µg/mL.
On the same counts, the results for `O=Cc1ccc2n1CC(=O)Nc1ccccc1-2` are > 50 µg/mL and > 50 µg/mL.
Turning to `CN1C(=O)[C@H](Cc2ccc(O)cc2)n2cccc2-c2ccccc21`, in the test with MT2 [1], the IC90 is > 5.2 µg/mL. Further, the CC50 with MT2 [2] worked out at 5.2 µg/mL (≈ 16.3 µM).
For the compound `O=C(O)C[C@H]1C(=O)Nc2ccccc2-c2cccn21`, the IC90 with MT2 [1] is > 50 µg/mL. In the test with MT2 [2], the CC50 is > 50 µg/mL.
Compound `O=C1[C@H](Cc2ccc(O)cc2)n2cccc2-c2ccccc2N1CCc1ccc(O)cc1` had a concentration for an effect of 90% (IC90) in the test with MT2 [1] of 0.8 µg/mL (≈ 1.88 µM). Besides, in the test with MT2 [2], the CC50 is 10 µg/mL (≈ 23.6 µM).
On to `O=C1c2ccccc2C(=O)N1CCCCN1C(=O)[C@H](Cc2ccc(O)cc2)n2cccc2-c2ccccc21`, for which the concentration for an effect of 90% (IC90) with MT2 [1] was > 23 µg/mL. The CC50 in the test on MT2 [2] amounted to 23 µg/mL (≈ 45.5 µM).
Regarding `O=Cc1ccc2n1[C@@H](Cc1ccccc1)C(=O)Nc1ccccc1-2`, in the test with MT2 [1], the 90% effect concentration (IC90) is > 2.5 µg/mL. Further, the CC50 in the test with MT2 [2] stood at 2.5 µg/mL (≈ 7.9 µM).
Turning to `O=C1Nc2ccccc2-c2cccn2[C@H]1Cc1ccc(O)cc1`, the IC90 in the test with MT2 [1] was > 23 µg/mL. Further, in the test on MT2 [2], the CC50 came out at 23 µg/mL (≈ 75.6 µM).
Take `CC(C)=CCN1Cc2cccc3[nH]c(=S)n(c23)C[C@@H]1C`: the pIC50 in test [8] was 7.55.
Regarding `Cc1ccnc2c1NC(=O)c1cccnc1N2C1CC1` [NEVIRAPINE], in test [8], the pIC50 was 7.40.
As to `CC(C)=CCN1Cc2cc(Cl)cc3nc(S)n(c23)CC1C` (stereo not drawn) [TIBO], the concentration for an effect of 90% (IC90) with MT2 [3] was 0.15 µg/mL (≈ 0.466 µM); with MT2 [5] it was 1.5 µg/mL (≈ 4.66 µM). Further, in the test on MT2 [4], the half-inhibitory concentration (IC50) is > 50 µg/mL. The CC50 in the test with MT2 [6] worked out at 55 µg/mL (≈ 171 µM).

For orientation: IC90 means the point of the concentration-response curve where the effect stands at 90%. Read a high IC90 as weaker potency. Broadly, the IC50 is the concentration needed to halve the response being measured. A high value points to weaker potency in that assay. The term pIC50 denotes the IC50 on a negative log10 scale, so that one unit is a factor of ten.
